Series [1] is described as follows: Metabolic stability in mouse liver microsomes assessed as compound remaining after 30 mins. The class given is ADME, Microsome. As to conditions: read-out: Stability; call rule not given here.
Series [2] in a line: Kinetic solubility of the compound. It counts as physicochemical. As to conditions: read-out: Kinetic_solubility.
Series [3] has as its target Isocitrate dehydrogenase [NADP] cytoplasmic (Homo sapiens, UniProt O75874). Briefly: Inhibition of wild-type IDH1 (unknown origin) by NADPH fluorescence based assay.
Series [4] in a line: Permeability of the compound by PAMPA. It counts as ADME. As to conditions: read-out: permeability. For orientation: The PAMPA barrier holds no transporters, so it reflects passive diffusion.
Series [5] in a line: Apparent permeability of the compound across apical side to basolateral side in human Caco2 cells. As to conditions: Caco-2. The class given is ADME, cell-based. (In general: Caco-2 monolayers are a common model of the intestinal barrier.)
Series [6] is described as follows: Efflux ratio of apparent permeability from basolateral side to apical side over apical side to basolateral side in MDCK cells. As to conditions: dog. It counts as ADME, cell-based, Canis lupus familiaris.
The nature of series [7]: Protein binding in dog plasma. The class given is ADME, cell-free, Canis lupus familiaris. As to conditions: read-out: PPB (converted).
Series [8] can be described thus: Intrinsic clearance in human hepatocytes. The class given is ADME, cell-based, Hepatocyte. As to conditions: read-out: CLH.
A short description of series [9]: fAUC (infinity) in rat at 1 mg/kg, iv or 5 mg/kg, po. The class given is ADME, organism-based. As to conditions: in vivo.
Series [10] is described as follows: Total Cmax in mouse at 1 mg/kg, iv or 5 mg/kg, po. As to conditions: in vivo. It counts as ADME, organism-based.
Series [11] is described as follows: fAUC (infinity) in mouse at 1 mg/kg, iv or 5 mg/kg, po. It counts as ADME, organism-based. As to conditions: in vivo.
The nature of series [12]: Clearance in mouse at 1 mg/kg, iv or 5 mg/kg, po. As to conditions: in vivo. It counts as ADME, organism-based.
Series [13] has as its system Mus musculus. Briefly: In vivo inhibition of IDH1 R132C mutant in human HCT116 cells xenografted in BALB/c nude mouse assessed as reduction in tumor 2-HG level at 25 mg/kg, po bid administered at 12 hrs intervals and measured at <= 12 hrs post last dose by LC-MS analysis relative to control. It counts as functional. As to conditions: HCT-116, po.
Series [14] concerns Mus musculus. Briefly: In vivo inhibition of IDH1 R132C mutant in human HCT116 cells xenografted in po dosed BALB/c nude mouse assessed as reduction in tumor 2-HG level administered at 12 hrs intervals and measured up to 24 hrs post last dose by LC-MS analysis. It counts as functional. (A xenograft is tissue or cells of one species grown in another, often human tumour cells in immunodeficient mice.)

In series [15] the target is Isocitrate dehydrogenase [NADP], mitochondrial (Homo sapiens, UniProt P48735, R172K). Briefly: Inhibition of IDH2 R172K mutant (unknown origin).
The target of series [16] is Isocitrate dehydrogenase [NADP], mitochondrial (Homo sapiens, UniProt P48735, R140Q). Briefly: Inhibition of IDH2 R140Q mutant (unknown origin).
For the next series, the target named is CYP2D6 (Homo sapiens, UniProt P10635). Briefly: Inhibition of CYP2D6 (unknown origin) at 10 uM relative to control. It counts as ADME.
The target in series [17] is T1, Cytochrome P450 3A4 (Homo sapiens, UniProt P08684). Briefly: Time dependent inhibition of CYP3A4 (unknown origin) at <5 uM using midazolam as substrate. It counts as ADME.
The target of series [18] is T1, Cytochrome P450 3A4. Briefly: Time dependent inhibition of CYP3A4 (unknown origin) at <5 uM pre-incubated for 30 mins followed by midazolam substrate addition in presence of NADPH. The class given is ADME.
The target in series [19] is T1, Cytochrome P450 3A4. Briefly: Time dependent inhibition of CYP3A4 (unknown origin) at <5 uM using testosterone as substrate. It counts as ADME.
Series [20] deals with alpha1 adrenergic receptor (Homo sapiens, UniProt P35348). Briefly: Displacement of [3H] prazosin from human alpha1 adrenergic receptor at 1 uM measured after 60 mins by scintillation counting method relative to control. As to conditions: probe [3H] prazosin.
In series [21] the target is Voltage-gated inwardly rectifying potassium channel KCNH2 (Homo sapiens, UniProt Q12809). Briefly: Inhibition of human ERG by patch clamp method.
Series [22] in a line: Metabolic stability in dog liver microsomes assessed as compound remaining after 30 mins. It counts as ADME, Canis lupus familiaris, Microsome. As to conditions: read-out: Stability.

Values after ≈ are worked out from the molar mass of the structure shown. A value given as a limit tells only on which side of the number the result lay.

T1 sequence (P08684 whole entry): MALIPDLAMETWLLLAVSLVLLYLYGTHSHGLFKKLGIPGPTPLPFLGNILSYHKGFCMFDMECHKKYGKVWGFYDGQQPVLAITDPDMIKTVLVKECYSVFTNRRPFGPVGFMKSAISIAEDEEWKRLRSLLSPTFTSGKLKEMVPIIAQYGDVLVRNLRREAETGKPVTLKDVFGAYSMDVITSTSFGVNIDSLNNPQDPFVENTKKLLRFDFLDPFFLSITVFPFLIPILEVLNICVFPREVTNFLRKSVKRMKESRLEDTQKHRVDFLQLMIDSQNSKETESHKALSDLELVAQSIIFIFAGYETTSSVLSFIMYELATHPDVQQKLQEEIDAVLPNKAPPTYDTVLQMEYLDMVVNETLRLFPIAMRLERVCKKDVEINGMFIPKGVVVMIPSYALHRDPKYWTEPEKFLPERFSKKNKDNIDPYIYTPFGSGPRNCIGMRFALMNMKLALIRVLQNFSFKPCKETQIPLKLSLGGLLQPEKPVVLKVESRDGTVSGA
Chain of Isocitrate dehydrogenase [NADP], mitochondrial (Homo sapiens, UniProt P48735, R140Q) (P48735 40-452 R140Q limits assumed): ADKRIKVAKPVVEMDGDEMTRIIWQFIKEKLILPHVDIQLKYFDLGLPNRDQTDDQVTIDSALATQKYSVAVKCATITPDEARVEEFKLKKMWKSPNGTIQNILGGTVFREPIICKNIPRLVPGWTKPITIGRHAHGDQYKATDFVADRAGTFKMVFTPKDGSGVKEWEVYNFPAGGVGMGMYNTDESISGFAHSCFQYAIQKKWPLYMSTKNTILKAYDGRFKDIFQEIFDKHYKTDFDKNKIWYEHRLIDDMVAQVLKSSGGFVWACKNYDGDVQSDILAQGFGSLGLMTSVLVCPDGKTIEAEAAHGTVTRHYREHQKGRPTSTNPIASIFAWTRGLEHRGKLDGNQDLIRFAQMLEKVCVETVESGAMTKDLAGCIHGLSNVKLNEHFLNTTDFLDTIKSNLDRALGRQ
Chain of CYP2D6 (P10635 whole entry): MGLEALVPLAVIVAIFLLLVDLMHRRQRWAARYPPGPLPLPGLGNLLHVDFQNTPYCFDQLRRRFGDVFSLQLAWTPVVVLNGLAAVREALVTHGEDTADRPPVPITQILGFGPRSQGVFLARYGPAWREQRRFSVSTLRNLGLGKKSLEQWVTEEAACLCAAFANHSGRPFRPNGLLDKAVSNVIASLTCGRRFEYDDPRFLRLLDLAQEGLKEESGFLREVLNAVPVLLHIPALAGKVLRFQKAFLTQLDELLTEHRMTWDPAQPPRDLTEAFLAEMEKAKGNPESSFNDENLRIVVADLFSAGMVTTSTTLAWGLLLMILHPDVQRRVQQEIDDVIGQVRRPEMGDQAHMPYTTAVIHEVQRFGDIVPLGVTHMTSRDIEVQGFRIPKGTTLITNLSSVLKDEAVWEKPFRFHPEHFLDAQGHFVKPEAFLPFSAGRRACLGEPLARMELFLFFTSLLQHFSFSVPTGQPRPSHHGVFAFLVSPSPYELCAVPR
Chain of Isocitrate dehydrogenase [NADP] cytoplasmic (O75874 whole entry, the tested form may be a part): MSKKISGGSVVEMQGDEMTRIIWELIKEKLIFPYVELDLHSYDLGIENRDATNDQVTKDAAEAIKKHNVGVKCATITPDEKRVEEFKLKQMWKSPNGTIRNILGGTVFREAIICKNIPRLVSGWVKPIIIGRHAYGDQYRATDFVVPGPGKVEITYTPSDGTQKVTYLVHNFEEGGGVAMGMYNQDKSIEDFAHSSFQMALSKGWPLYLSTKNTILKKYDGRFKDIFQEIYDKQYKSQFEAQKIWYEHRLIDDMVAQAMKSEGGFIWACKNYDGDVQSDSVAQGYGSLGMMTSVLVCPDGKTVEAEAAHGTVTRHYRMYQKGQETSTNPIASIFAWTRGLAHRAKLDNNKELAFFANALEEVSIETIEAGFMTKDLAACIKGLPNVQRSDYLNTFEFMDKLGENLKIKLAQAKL
Chain of Isocitrate dehydrogenase [NADP], mitochondrial (Homo sapiens, UniProt P48735, R172K) (P48735 40-452 R172K limits assumed): as the sequence (P48735 40-452 R140Q limits assumed) above, with Q101R, R133K counted along it
Chain of Voltage-gated inwardly rectifying potassium channel KCNH2 (Q12809 whole entry): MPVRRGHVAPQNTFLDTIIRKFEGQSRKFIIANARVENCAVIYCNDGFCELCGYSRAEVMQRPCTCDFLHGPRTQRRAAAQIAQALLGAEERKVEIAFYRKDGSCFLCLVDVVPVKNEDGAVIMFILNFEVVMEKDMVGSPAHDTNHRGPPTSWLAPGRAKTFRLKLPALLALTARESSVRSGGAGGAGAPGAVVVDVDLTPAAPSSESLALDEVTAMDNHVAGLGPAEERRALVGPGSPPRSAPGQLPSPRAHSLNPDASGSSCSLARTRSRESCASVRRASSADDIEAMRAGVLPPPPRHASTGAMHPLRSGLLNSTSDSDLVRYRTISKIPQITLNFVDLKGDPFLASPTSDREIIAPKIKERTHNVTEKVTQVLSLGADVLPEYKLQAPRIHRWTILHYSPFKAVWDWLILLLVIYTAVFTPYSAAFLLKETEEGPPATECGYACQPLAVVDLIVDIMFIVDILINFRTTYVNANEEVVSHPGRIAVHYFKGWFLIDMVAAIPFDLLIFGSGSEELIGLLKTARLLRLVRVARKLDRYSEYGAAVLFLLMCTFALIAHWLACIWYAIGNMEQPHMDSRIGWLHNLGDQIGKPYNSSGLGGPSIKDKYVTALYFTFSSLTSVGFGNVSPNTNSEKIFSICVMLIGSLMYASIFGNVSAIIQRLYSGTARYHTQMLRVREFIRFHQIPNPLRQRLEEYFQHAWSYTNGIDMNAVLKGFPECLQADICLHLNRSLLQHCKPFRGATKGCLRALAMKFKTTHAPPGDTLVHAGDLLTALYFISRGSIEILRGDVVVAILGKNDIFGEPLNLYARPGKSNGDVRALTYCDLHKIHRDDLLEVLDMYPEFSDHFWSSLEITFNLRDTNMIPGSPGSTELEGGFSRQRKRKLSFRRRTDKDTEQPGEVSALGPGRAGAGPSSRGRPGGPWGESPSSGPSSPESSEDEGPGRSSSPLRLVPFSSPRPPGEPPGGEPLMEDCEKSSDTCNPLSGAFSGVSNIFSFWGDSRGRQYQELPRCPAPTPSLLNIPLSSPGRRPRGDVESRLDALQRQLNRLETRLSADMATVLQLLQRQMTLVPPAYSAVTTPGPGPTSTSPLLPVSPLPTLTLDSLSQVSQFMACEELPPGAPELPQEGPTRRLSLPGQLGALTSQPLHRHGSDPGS
Chain of alpha1 adrenergic receptor (P35348 whole entry): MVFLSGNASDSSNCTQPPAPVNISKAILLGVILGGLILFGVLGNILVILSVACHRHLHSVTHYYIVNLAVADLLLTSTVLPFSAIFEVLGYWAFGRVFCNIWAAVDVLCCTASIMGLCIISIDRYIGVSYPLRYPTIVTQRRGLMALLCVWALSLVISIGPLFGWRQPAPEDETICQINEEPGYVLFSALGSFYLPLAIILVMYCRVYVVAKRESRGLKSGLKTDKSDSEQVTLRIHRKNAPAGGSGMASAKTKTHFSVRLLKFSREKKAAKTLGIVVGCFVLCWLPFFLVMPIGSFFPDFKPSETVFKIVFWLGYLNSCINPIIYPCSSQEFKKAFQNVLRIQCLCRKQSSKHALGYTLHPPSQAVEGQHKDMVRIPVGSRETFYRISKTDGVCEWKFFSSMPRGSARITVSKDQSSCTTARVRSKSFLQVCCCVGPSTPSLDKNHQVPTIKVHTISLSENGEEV

Usually IC50 stands for the concentration at which inhibition is half-maximal. Lower therefore signals inhibition by little substance. By Papp A→B is commonly meant how fast a substance crosses the layer from the apical side. For orientation: efflux ratio means the permeability from basolateral to apical divided by that in the opposite direction, in the common usage. By Cmax is commonly meant the highest concentration seen after dosing. For orientation: inhibition in vivo means the drop in the measured response relative to a control, in per cent. A word on the inhibition: it is how much of the control response was suppressed. Low values mean a response near the control, high ones a response far below the control. Turning to `COc1nc(N[C@@H](C)c2cc3cc(Cl)ccc3[nH]c2=O)ncc1C#N`, the figures for the remaining at 0.5 h in series [1] and in series [22] were 100 to 106% and 94%, respectively. In series [2], the solubility kinetic stood at 10.5 µM (≈ 3.74 µg/mL). Moreover, the IC50 is 35 µM in [3], 33.8 µM in series [15], 76.6 µM in series [16] and 3.2 µM in [21]. Moreover, in [4], the Papp came out at 180 nm/s. Further, the Papp A→B in [5] worked out at 86.6 nm/s. Moreover, the efflux ratio in series [6] worked out at 0.63. For the same compound, the fraction unbound in series [7] was 0.0369. Further, the CLint scaled in series [8] was determined as 0.819 L/h/kg. Besides, the fAUC turned out to be 459 nM·h in series [9] and 2060 nM·h in [11]. In series [10], this compound displayed a Cmax of 5.9 µM. This compound also gave a clearance in [12] of 0.198 L/h/kg. In addition, in the series with Mus musculus [13], the inhibition in vivo at 25 mg/kg is over 90%. In the series on Mus musculus [14], the fIC50 was 46 nM. At CYP2D6, this compound displayed an inhibition at 10 µM of 10.2%. The TDI entry on Cytochrome P450 3A4 [17], on Cytochrome P450 3A4 [18] and at Cytochrome P450 3A4 [19] was “Not Active” throughout. In addition, the inhibition at 1 h, 1 µM in series [20] was over 50%.

Source of the values: ChEMBL document CHEMBL4359816, “Discovery and Optimization of Quinolinone Derivatives as Potent, Selective, and Orally Bioavailable Mutant Isocitrate Dehydrogenase 1 (mIDH1) Inhibitors” (J Med Chem, 2019).
